Read-outs that look alike come from different tables or passages of the source.
Legend:
[1] = biological target: T1, hCA I (Homo sapiens, UniProt P00915); assay: CA esterase activity assay, isozyme hCA I; assay type: biochemical
T1 construct: made in house; host or cells: Escherichia coli BL21 (DE3)
Procedure: Human CA I and CA II cDNAs were expressed in Escherichia coli strain BL21 (DE3) from the plasmids pACA/hCA I and pACA/hCA II described by Lindskog's group [54].
Non-enzymatic hydrolysis rates were always subtracted from the observed rates. […] Inhibitor and enzyme solutions were preincubated together for 10 min at room temperature prior to assay, in order to allow for the formation of the E-I complex. The inhibition constant KI was determined as described in references [44, 76].

[2] = biological target: T2, hCA II (Homo sapiens, UniProt P00918); assay: CA esterase activity assay, isozyme hCA II; assay type: biochemical
T2 construct: made in house; host or cells: Escherichia coli BL21 (DE3)

[3] = biological target: T3, bCA IV (Bos taurus, UniProt Q95323); assay: CA esterase activity assay, isozyme bCA IV; assay type: biochemical, bovine
T3 construct: CA IV was isolated from bovine lung microsomes as described by Maren et al; from tissue; host or cells: bovine lung microsomes
T3 sequence (Q95323 19-284): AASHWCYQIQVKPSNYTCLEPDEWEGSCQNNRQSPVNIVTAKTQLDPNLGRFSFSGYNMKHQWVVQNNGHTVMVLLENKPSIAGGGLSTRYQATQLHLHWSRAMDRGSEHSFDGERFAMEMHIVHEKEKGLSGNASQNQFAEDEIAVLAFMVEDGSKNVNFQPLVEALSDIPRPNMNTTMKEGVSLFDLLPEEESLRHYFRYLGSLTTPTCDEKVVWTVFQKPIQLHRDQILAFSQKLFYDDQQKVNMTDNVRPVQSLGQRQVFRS

[4] = biological target: hCA IX (Homo sapiens, UniProt Q16790); assay: CA CO2 hydrase activity assay, tumor-associated isozyme hCA IX
Procedure: An SX.18MV-R Applied Photophysics stopped-flow instrument has been used for assaying the CA CO2 hydration activity assays [44]. […] Inhibitor and enzyme solutions were preincubated together for 10 min at room temperature prior to assay, in order to allow for the formation of the E-I complex.

[5] = Table 2, human (cloned) isozymes, read-out: KI hCA I
[6] = Table 2, human (cloned) isozymes, read-out: KI hCA II
[7] = Table 2, from bovine lung microsomes, read-out: KI bCA IV
[8] = read-out: KI hCA IX, Table 2, catalytic domain of the human, cloned isozyme
[9] = Table 3, human (cloned) isozymes, esterase assay method, read-out: KI hCA I
[10] = Table 3, read-out: KI against CA I
[11] = Table 3, human (cloned) isozymes, esterase assay method, read-out: KI hCA II
[12] = Tables 1 and 3, read-out: KI against CA II
[13] = Table 3, from bovine lung microsomes, esterase assay method, read-out: KI bCA IV
[14] = Table 3, read-out: KI against CA IV
[15] = read-out: KI hCA IX, Table 3, catalytic domain of the human, cloned isozyme, CO2 hydrase assay method
[16] = KI against CA IX, text discussion of Tables 1-3

T1 sequence (P00915 whole entry): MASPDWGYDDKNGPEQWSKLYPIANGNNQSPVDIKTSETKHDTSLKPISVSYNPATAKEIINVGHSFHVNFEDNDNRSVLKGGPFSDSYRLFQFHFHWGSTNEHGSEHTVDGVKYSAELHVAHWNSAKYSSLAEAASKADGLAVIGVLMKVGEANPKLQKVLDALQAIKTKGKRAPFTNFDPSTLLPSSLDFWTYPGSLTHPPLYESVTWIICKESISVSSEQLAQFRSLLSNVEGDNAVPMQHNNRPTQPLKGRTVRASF

Row | Ki [1, 5] [nM] | Ki [2, 6] [nM] | Ki [3, 7] [nM] | Ki [4, 8] [nM] | Ki [4] [nM] | Ki [1, 9] [nM] | Ki [1, 10] [nM] | Ki [2, 11] [nM] | Ki [2, 12] [nM] | Ki [3, 13] [nM] | Ki [3, 14] [nM] | Ki [4, 15] [nM] | Ki ([2]; read-out: KI hCA II) [nM] | Ki [4, 16] [nM] | Ki ([2]; read-out: KI against CA II) [nM] | Structure (SMILES)
1 | 1000 | 9 | 21 | 8 | < 10 |  |  |  |  |  |  |  |  |  |  | CCc1cc(-c2ccccc2)cc(CC)[n+]1CCc1ccc(S(N)(=O)=O)cc1 [Compound 59]
2 | 2000 | 21 | 52 | 29 |  |  |  |  |  |  |  |  |  |  |  | CCc1cc(-c2ccccc2)cc(CC)[n+]1Cc1ccc(S(N)(=O)=O)cc1 [Compound 43]
3 | 24000 | 90 | 163 | 230 | 160 to 450 |  |  |  |  |  |  |  |  |  |  | CCCc1cc(-c2ccccc2)cc(CCC)[n+]1Cc1ccc(S(N)(=O)=O)cc1 [Compound 44]
4 | 280000 | 472 | 1960 | 120 | 64 to 135 |  |  |  |  |  |  |  |  |  |  | NS(=O)(=O)c1ccc(C[n+]2c(-c3ccccc3)cc(-c3ccccc3)cc2-c2ccccc2)cc1 [Compound 52]
5 | 130000 | 390 | 1260 | 85 |  |  |  |  |  |  |  |  |  |  |  | CCCc1cc(-c2ccccc2)cc(-c2ccccc2)[n+]1Cc1ccc(S(N)(=O)=O)cc1 [Compound 48]
6 | 265000 |  | 1900 | 81 | 64 to 135 |  |  |  |  |  |  |  | 420 |  |  | NS(=O)(=O)c1ccc(CC[n+]2c(-c3ccccc3)cccc2-c2ccccc2)cc1 [Compound 69]
7 | 40000 | 210 | 852 | 280 |  |  |  |  |  |  |  |  |  |  |  | Cc1cc(-c2ccccc2)cc(-c2ccccc2)[n+]1-c1ccc(S(N)(=O)=O)cc1 [Compound 32]
8 | 300000 | 595 | 2100 | 135 |  |  |  |  |  |  |  |  |  |  |  | CCCCc1cc(-c2ccccc2)cc(-c2ccccc2)[n+]1Cc1ccc(S(N)(=O)=O)cc1.[O-][Cl+3]([O-])([O-])[O-] [Compound 50]
9 |  |  |  |  |  | 8 | 7 to 12 | 3.9 | 3.13 to 5.96 | 6 | 5.2 to 10.3 | 40 |  |  |  | CCCc1cc(-c2ccccc2)cc(-c2ccccc2)[n+]1-c1ccc(S(=O)(=O)Nc2nnc(S(N)(=O)=O)s2)cc1 [Compound 82, 1-N-[5-Sulfamoyl-1,3,4-thiadiazol-2-yl-(aminosulfonyl-4-phenyl)]-2-n-propyl-4,6-diphenylpyridinium perchlorate]
10 | 7000 | 42 | 82 | 205 | 160 to 450 |  |  |  |  |  |  |  |  |  |  | CCCc1cc(-c2ccccc2)cc(CCC)[n+]1CCc1ccc(S(N)(=O)=O)cc1 [Compound 60]
11 | 32000 |  | 161 | 64 |  |  |  |  |  |  |  |  | 121 |  |  | Cc1cc(-c2ccccc2)cc(-c2ccccc2)[n+]1Cc1ccc(S(N)(=O)=O)cc1 [Compound 46]

Continued, compound first:

Row | Structure (SMILES) | Ki [1, 5] [nM] | Ki [2, 6] [nM] | Ki [3, 7] [nM] | Ki [4, 8] [nM] | Ki [4] [nM] | Ki [1, 9] [nM] | Ki [1, 10] [nM] | Ki [2, 11] [nM] | Ki [2, 12] [nM] | Ki [3, 13] [nM] | Ki [3, 14] [nM] | Ki [4, 15] [nM] | Ki ([2]; read-out: KI hCA II) [nM] | Ki [4, 16] [nM] | Ki ([2]; read-out: KI against CA II) [nM]
12 | CCCc1cc(-c2ccccc2)cc(CCC)[n+]1-c1ccc(S(N)(=O)=O)cc1 [Compound 30] | 10000 | 120 | 194 | 178 |  |  |  |  |  |  |  |  |  |  | 
13 | Cc1cc(C(C)C)[n+](Cc2ccc(S(N)(=O)=O)cc2)c(C(C)C)c1 [Compound 41] | 11000 | 80 | 144 | 54 |  |  |  |  |  |  |  |  |  |  | 
14 | Cc1cc(C(C)(C)C)[n+](-c2ccc(S(=O)(=O)Nc3nnc(S(N)(=O)=O)s3)cc2)c(C(C)(C)C)c1 [Compound 74] |  |  |  |  | 12 to 35 | 11 | 7 to 12 | 3.13 | 3.13 to 5.96 | 9.4 | 5.2 to 10.3 | 34 |  |  | 
15 | Cc1cc(C)[n+](-c2ccc(S(=O)(=O)Nc3nnc(S(N)(=O)=O)s3)cc2)c(C(C)C)c1 [Compound 72, 1-N-[5-Sulfamoyl-1,3,4-thiadiazol-2-yl-(aminosulfonyl-4-phenyl)]-2-iso-propyl-4,6-dimethylpyridinium perchlorate] |  |  |  |  | 3 to 9 | 4 |  | 0.39 | 0.2 to 1.61 | 3 |  | 5 |  |  | 
16 | Cc1cc(-c2ccccc2)cc(C)[n+]1-c1ccc(S(N)(=O)=O)cc1 [Compound 28] | 7000 | 60 | 211 | 48 | 6 to 54 |  |  |  |  |  |  |  |  |  | 
17 | Cc1cc(C)[n+](CCc2ccc(S(N)(=O)=O)cc2)c(C(C)C)c1 [Compound 56] | 2000 | 15 | 32 | 31 |  |  |  |  |  |  |  |  |  |  | 
18 | Cc1cc(C)[n+](-c2ccc(S(N)(=O)=O)cc2)c(C)c1C [Compound 38] | 5000 | 40 | 61 | 72 | 64 to 135 |  |  |  |  |  |  |  |  |  | 
19 | NS(=O)(=O)c1nnc(NS(=O)(=O)c2ccc(-[n+]3c(-c4ccccc4)cccc3-c3ccccc3)cc2)s1 [Compound 88, 1-N-[5-Sulfamoyl-1,3,4-thiadiazol-2-yl-(aminosulfonyl-4-phenyl)]-2,6-diphenylpyridinium perchlorate] |  |  |  |  | 12 to 35 | 5 |  | 4.93 | 3.13 to 5.96 | 5.4 | 5.2 to 10.3 | 16 |  |  | 
20 | CCCCc1cc(-c2ccccc2)cc(CCCC)[n+]1-c1ccc(S(=O)(=O)Nc2nnc(S(N)(=O)=O)s2)cc1 [Compound 78] |  |  |  |  |  | 10 | 7 to 12 | 4.62 | 3.13 to 5.96 | 10.3 | 5.2 to 10.3 | 40 |  | 40 to 43 | 
21 | Cc1cc(-c2ccccc2)cc(C)[n+]1-c1ccc(S(=O)(=O)Nc2nnc(S(N)(=O)=O)s2)cc1 [Compound 75, 1-N-[5-Sulfamoyl-1,3,4-thiadiazol-2-yl-(aminosulfonyl-4-phenyl)]-2,6-dimethyl-4-phenylpyridinium perchlorate] |  |  |  |  |  |  | 3 | 0.2 |  | 2 |  | 6 |  | 3 to 9 | 0.2 to 1.61
22 | Cc1cc(C)[n+](Cc2ccc(S(N)(=O)=O)cc2)c(C(C)C)c1 [Compound 40] | 6000 | 50 | 80 | 42 |  |  |  |  |  |  |  |  |  |  | 
23 | CCCc1cc(-c2ccccc2)cc(CCC)[n+]1-c1ccc(S(=O)(=O)Nc2nnc(S(N)(=O)=O)s2)cc1 [Compound 77, 1-N-[5-Sulfamoyl-1,3,4-thiadiazol-2-yl-(aminosulfonyl-4-phenyl)]-2,6-di-n-propyl-4-phenylpyridinium perchlorate] |  |  |  |  | 12 to 35 | 9 | 7 to 12 | 3.45 | 3.13 to 5.96 | 8.1 | 5.2 to 10.3 | 35 |  |  | 
24 | CC(C)c1cc(-c2ccccc2)cc(-c2ccccc2)[n+]1-c1ccc(S(=O)(=O)Nc2nnc(S(N)(=O)=O)s2)cc1 [Compound 83, 1-N-[5-Sulfamoyl-1,3,4-thiadiazol-2-yl-(aminosulfonyl-4-phenyl)]-2-iso-propyl-4,6-diphenylpyridinium perchlorate] |  |  |  |  | 12 to 35 | 6 |  | 3.74 | 3.13 to 5.96 | 4.5 |  | 32 |  |  | 
25 | Cc1cc(C)[n+](-c2ccc(S(N)(=O)=O)cc2)c(C)c1 [Compound 27] | 10000 | 150 | 290 | 165 | 160 to 450 |  |  |  |  |  |  |  |  |  | 
